Reference: ChEMBL document CHEMBL1201862, “PubChem BioAssay data set” (2004)
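Step 1: Grow cells in 96-well plates. Step 2: Expose to compound for 48 hours at 5 concentrations. Step 3: Interpolate endpoints linearly; if unreached, use highest concentration. Here, GI50 denotes the concentration required for 50% inhibition of growth.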 Activity calls are given as the source filed them. Rule as the data show it: active = GI50 up to about 1.1 µM and inactive = higher.

Assays:
Experiment in all cases: DTP human tumour cell line panel, 48 h
HT-29 = system: HT-29
MOLT-4 = system: MOLT-4
SK-MEL-28 = system: SK-MEL-28
U-251 = system: U-251
SW-620 = system: SW-620
M14 = system: M14
RXF 393 = system: RXF 393
MDA-MB-231 = system: MDA-MB-231
UACC-62 = system: UACC-62
DU-145 = system: DU-145
MDA-MB-435 = system: MDA-MB-435
SK-OV-3 = system: SK-OV-3
HCT-116 = system: HCT-116
IGROV-1 = system: IGROV-1
786-0 = system: 786-0
SN12C = system: SN12C
CAKI-1 = system: CAKI-1
BT-549 = system: BT-549
SNB-19 = system: SNB-19
LOX IMVI = system: LOX IMVI

Measured: GI50

C=C(C(=O)OC)[C@@H]1C[C@@H](OC(C)=O)C2=C[C@H](C[C@@]3(C)O[C@@H]3C3=CC(C)=C(O3)[C@H]1OC(C)=O)OC2=O [BIPINNATIN I]
inactive: HT-29 6.24 µM | MOLT-4 2.16 µM | SK-MEL-28 16.2 µM | U-251 23.1 µM | SW-620 4.71 µM | M14 14.8 µM | RXF 393 12 µM | MDA-MB-231 20.9 µM | UACC-62 18.4 µM | DU-145 32.9 µM | MDA-MB-435 16.8 µM | SK-OV-3 37.5 µM | HCT-116 10.4 µM | IGROV-1 15.3 µM | 786-0 14.7 µM | SN12C 22.4 µM | CAKI-1 7.74 µM | BT-549 12.9 µM | SNB-19 47.6 µM | LOX IMVI 16.3 µM

CCOC(=O)C12OC(CCC1=O)C(C(=O)OC)=C2C(=O)OC (stereo not drawn)
inactive: HT-29 > 10 µM | MOLT-4 > 10 µM | SK-MEL-28 > 10 µM | U-251 > 10 µM | SW-620 > 10 µM | M14 > 10 µM | RXF 393 > 10 µM | MDA-MB-231 > 10 µM | UACC-62 > 10 µM | DU-145 > 10 µM | MDA-MB-435 > 10 µM | SK-OV-3 > 10 µM | HCT-116 > 10 µM | IGROV-1 > 10 µM | 786-0 > 10 µM | SN12C > 10 µM | CAKI-1 > 10 µM | BT-549 > 10 µM | SNB-19 > 10 µM | LOX IMVI > 10 µM

OC1CN2Cc3cc4c(cc3[C@]13C=C[C@@H](O)CC23)OCO4 (stereo partly drawn)
inactive: HT-29 10.9 µM | MOLT-4 16.6 µM | SK-MEL-28 48.4 µM | U-251 30.8 µM | SW-620 28 µM | M14 20.5 µM | RXF 393 15.7 µM | MDA-MB-231 59.3 µM | UACC-62 33 µM | DU-145 8.69 µM | MDA-MB-435 20 µM | SK-OV-3 20.2 µM | HCT-116 14.2 µM | IGROV-1 18.3 µM | 786-0 20.9 µM | SN12C 25.1 µM | CAKI-1 11.9 µM | BT-549 33.4 µM | SNB-19 22.2 µM | LOX IMVI 30 µM

O=C(O)C12C3CCC(CC3)C1(C(=O)O)C1CCC2C1 (stereo not drawn)
inactive: HT-29 > 100 µM | MOLT-4 > 100 µM | SK-MEL-28 > 100 µM | U-251 > 100 µM | SW-620 > 100 µM | M14 > 100 µM | RXF 393 > 100 µM | MDA-MB-231 > 100 µM | UACC-62 > 100 µM | DU-145 > 100 µM | MDA-MB-435 > 100 µM | SK-OV-3 > 100 µM | HCT-116 > 100 µM | IGROV-1 > 100 µM | 786-0 > 100 µM | SN12C > 100 µM | CAKI-1 > 100 µM | BT-549 > 100 µM | SNB-19 > 100 µM | LOX IMVI > 100 µM

C=C1C[C@@H](O)[C@@H](Br)C(C)(C)[C@]12CCC(C)(Cl)C(Br)C2 (stereo partly drawn)
inactive: HT-29 29 µM | MOLT-4 36.4 µM | SK-MEL-28 55.7 µM | U-251 24.4 µM | SW-620 39.9 µM | M14 34 µM | RXF 393 28.6 µM | MDA-MB-231 40.7 µM | UACC-62 40.5 µM | DU-145 62.4 µM | MDA-MB-435 23.9 µM | SK-OV-3 57.3 µM | HCT-116 32.3 µM | IGROV-1 7.93 µM | 786-0 25.9 µM | SN12C 18.8 µM | CAKI-1 34.8 µM | BT-549 35.5 µM | SNB-19 > 31.6 µM | LOX IMVI 21.3 µM

O=c1c2c(c1=O)C1(SCCCS1)c1cc(Cl)ccc1O2
inactive: HT-29 > 100 µM | MOLT-4 > 100 µM | SK-MEL-28 > 100 µM | U-251 > 100 µM | SW-620 > 100 µM | M14 > 100 µM | RXF 393 > 100 µM | MDA-MB-231 > 100 µM | UACC-62 > 100 µM | DU-145 > 100 µM | MDA-MB-435 > 100 µM | SK-OV-3 > 100 µM | HCT-116 > 100 µM | IGROV-1 > 100 µM | 786-0 > 100 µM | SN12C > 100 µM | CAKI-1 > 100 µM | BT-549 > 100 µM | SNB-19 > 100 µM | LOX IMVI > 100 µM

COC(=O)c1ccc(CCc2cc(O)c(Br)cc2O)cc1
inactive: HT-29 16.8 µM | MOLT-4 2.42 µM | SK-MEL-28 17.5 µM | U-251 12.6 µM | SW-620 15 µM | M14 15.6 µM | RXF 393 16.6 µM | MDA-MB-231 15.1 µM | UACC-62 14.1 µM | DU-145 14.4 µM | MDA-MB-435 8.49 µM | SK-OV-3 25.4 µM | HCT-116 5.38 µM | IGROV-1 14.6 µM | 786-0 14.4 µM | SN12C 15 µM | CAKI-1 10.3 µM | BT-549 4.63 µM | SNB-19 17.4 µM | LOX IMVI 13.7 µM

CCCC[C@@H]1CCN2C[C@@H](O)[C@@H](O)[C@@H]2[C@H]1O
inactive: HT-29 > 100 µM | MOLT-4 > 100 µM | SK-MEL-28 > 100 µM | U-251 > 100 µM | SW-620 > 100 µM | M14 > 100 µM | RXF 393 > 100 µM | MDA-MB-231 > 100 µM | UACC-62 > 100 µM | DU-145 > 100 µM | MDA-MB-435 > 100 µM | SK-OV-3 > 100 µM | HCT-116 > 100 µM | IGROV-1 > 100 µM | 786-0 > 100 µM | SN12C > 100 µM | CAKI-1 > 100 µM | BT-549 > 100 µM | SNB-19 > 100 µM | LOX IMVI > 100 µM

O=C(Nc1ccc(Cl)cc1)c1cc(S(=O)(=O)N2CCNNC2=O)c(S)cc1Cl
inactive: MOLT-4 > 100 µM | SK-MEL-28 > 100 µM | U-251 > 100 µM | SW-620 > 100 µM | M14 > 100 µM | RXF 393 17.4 µM | MDA-MB-231 > 100 µM | UACC-62 > 100 µM | DU-145 > 100 µM | MDA-MB-435 > 100 µM | HCT-116 > 100 µM | IGROV-1 > 100 µM | 786-0 > 100 µM | SN12C > 100 µM | CAKI-1 > 100 µM | BT-549 35.7 µM | SNB-19 > 100 µM | LOX IMVI > 100 µM

O=c1oc2ccccc2c2c1Sc1ccccc1N2
inactive: HT-29 > 100 µM | MOLT-4 63.4 µM | SK-MEL-28 > 100 µM | U-251 58.3 µM | SW-620 > 100 µM | M14 > 100 µM | RXF 393 64.9 µM | MDA-MB-231 85.5 µM | UACC-62 50.1 µM | DU-145 > 100 µM | MDA-MB-435 96.4 µM | HCT-116 89.3 µM | IGROV-1 > 100 µM | 786-0 > 100 µM | SN12C > 100 µM | CAKI-1 > 100 µM | BT-549 > 100 µM | SNB-19 > 100 µM | LOX IMVI > 100 µM

O=C(O)c1nc2ccccc2nc1NCc1ccc(F)cc1
inactive: HT-29 69.5 µM | MOLT-4 67 µM | SK-MEL-28 > 100 µM | U-251 52.7 µM | SW-620 63.8 µM | M14 > 100 µM | RXF 393 > 100 µM | MDA-MB-231 68.7 µM | UACC-62 > 100 µM | DU-145 99.8 µM | MDA-MB-435 > 100 µM | HCT-116 41.6 µM | IGROV-1 46.6 µM | 786-0 42.8 µM | SN12C > 100 µM | CAKI-1 62.4 µM | BT-549 > 100 µM | SNB-19 47.5 µM | LOX IMVI 36.8 µM

Cn1c(=O)oc2cc(C(=O)CSC(=S)N3CCCCCC3)ccc21
inactive: HT-29 18.7 µM | MOLT-4 41.3 µM | SK-MEL-28 > 100 µM | U-251 72.8 µM | SW-620 > 100 µM | M14 > 100 µM | RXF 393 > 100 µM | MDA-MB-231 > 100 µM | UACC-62 > 100 µM | DU-145 > 100 µM | MDA-MB-435 > 100 µM | SK-OV-3 > 100 µM | HCT-116 73.6 µM | IGROV-1 > 100 µM | 786-0 > 100 µM | SN12C > 100 µM | CAKI-1 > 100 µM | BT-549 > 100 µM | SNB-19 > 100 µM

CN(C)CCCNc1cc(O)c2c(c1O)C(=O)c1ccccc1C2=O
inactive: HT-29 11 µM | SK-MEL-28 16.4 µM | U-251 13.2 µM | SW-620 8.65 µM | M14 5.38 µM | RXF 393 4.59 µM | MDA-MB-231 12.6 µM | UACC-62 18.4 µM | DU-145 14.8 µM | MDA-MB-435 15.5 µM | SK-OV-3 12.2 µM | HCT-116 4.9 µM | IGROV-1 10.6 µM | 786-0 7.67 µM | SN12C 3.48 µM | CAKI-1 13 µM | BT-549 17 µM | SNB-19 6.9 µM | LOX IMVI 9.53 µM

O=C(/C=C/c1ccccc1)c1cc(CN2CCOCC2)c(O)c(CN2CCOCC2)c1
inactive: HT-29 17.4 µM | MOLT-4 16.7 µM | SK-MEL-28 14.5 µM | U-251 4.51 µM | SW-620 12.3 µM | M14 17.9 µM | RXF 393 14.1 µM | MDA-MB-231 18.2 µM | UACC-62 17 µM | DU-145 16 µM | MDA-MB-435 14.5 µM | HCT-116 12.6 µM | IGROV-1 > 100 µM | 786-0 9.42 µM | SN12C 11.9 µM | CAKI-1 2.26 µM | BT-549 28 µM | SNB-19 94 µM | LOX IMVI 4.65 µM
